Measurements as given in patent US20260053171A1, “METHANOGEN INHIBITORS” (AGRIZERONZ LIMITED PARTNERSHIP, priority 2022, published 2026).

System: methane production in rumen fluid
Experiment: Rumen in vitro (RIV) assay, methane production from rumen fluid incubations
Format: cell-based, cattle
Details: Bos taurus, read-out: RIV % methane reduction +/− SD
In short: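 Rumen fluid from two fistulated cattle diluted 12 ml in 48 ml buffer with ryegrass substrate, incubated in sealed bottles at 39° C for 24-48 h in duplicate. Inhibitors added in DMF (stocks 1000-fold above highest assay level); total gas, methane and H2 measured automatically; 30 μM BES positive control, no-inhibitor negative control.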

Compound | inhibition at 10 µM | inhibition at 2 µM | inhibition at 50 µM
O=C(O)CCC(=O)N1N=C(c2ccc(-c3ccccc3)cc2F)CC1c1ccc2nccnc2c1 (stereo not drawn) [Compound 109, 4-(3-(3-Fluoro-[1,1′-biphenyl]-4-yl)-5-(quinoxalin-6-yl)-4,5-dihydro-1H-pyrazol-1-yl)-4-oxobutanoic acid] | 40.4 ± 8.1% |  | 
O=C(O)CCC(=O)N1N=C(c2ccc(-c3ccc(OC(F)F)cc3)cc2)CC1c1ccc2nccnc2c1 (stereo not drawn) [Compound 65, 4-(3-(4′-(Difluoromethoxy)-[1,1′-biphenyl]-4-yl)-5-(quinoxalin-6-yl)-4,5-dihydro-1H-pyrazol-1-yl)-4-oxobutanoic acid] | 90.2% | 26.2% | 
O=C(O)CCC(=O)N1N=C(c2cccc(-c3ccccc3)c2)CC1c1ccc2nccnc2c1 (stereo not drawn) [Compound 13, 4-(3-([1,1′-Biphenyl]-3-yl)-5-(quinoxalin-6-yl)-4,5-dihydro-1H-pyrazol-1-yl)-4-oxobutanoic acid] | 74.4 ± 3.3% | 5 ± 0.4% | 97.2 ± 0.1%
CC(C)Oc1ccc(-c2ccc(C3=NN(C(=O)CCC(=O)O)C(c4ccc5nccnc5c4)C3)cc2)cn1 (stereo not drawn) [Compound 107, 4-(3-(4-(6-Isopropoxypyridin-3-yl)phenyl)-5-(quinoxalin-6-yl)-4,5-dihydro-1H-pyrazol-1-yl)-4-oxobutanoic acid] | 33.4 ± 2.1% |  | 
O=C(O)c1cccc(N2N=C(c3ccc(-c4ccccc4)cc3)CC2c2ccc3nccnc3c2)c1 (stereo not drawn) [Compound 61, 3-(3-([1,1′-Biphenyl]-4-yl)-5-(quinoxalin-6-yl)-4,5-dihydro-1H-pyrazol-1-yl)benzoic acid] | 88.3 ± 0.9% | 13.1% | 95.9 ± 0.6%
O=C(O)CCC(=O)N1N=C(c2ccc(Cl)cc2)CC1c1ccc2nccnc2c1 (stereo not drawn) [Compound 1, 4-(3-(4-Chlorophenyl)-5-(quinoxalin-6-yl)-4,5-dihydro-1H-pyrazol-1-yl)-4-oxobutanoic acid] |  |  | 37.6 ± 1.3%
O=C(O)CCC(=O)N1N=C(c2ccc(-c3ccccc3)cn2)CC1c1ccc2nccnc2c1 (stereo not drawn) [Compound 29, 4-Oxo-4-(3-(5-phenylpyridin-2-yl)-5-(quinoxalin-6-yl)-4,5-dihydro-1H-pyrazol-1-yl)butanoic acid] |  |  | 33.3 ± 0.6%
COCCOc1ccc(-c2ccc(C3=NN(C(=O)CCC(=O)O)C(c4ccc5nccnc5c4)C3)cc2)cc1 (stereo not drawn) [Compound 91, 4-(3-(4′-(2-Methoxyethoxy)-[1,1′-biphenyl]-4-yl)-5-(quinoxalin-6-yl)-4,5-dihydro-1H-pyrazol-1-yl)-4-oxobutanoic acid] | 73.2 ± 2.8% | < 5% | 
Cc1ccc(C2=NN(C(=O)CCC(=O)O)C(c3ccc4nccnc4c3)C2)cc1 (stereo not drawn) [Compound 2] |  |  | 13.9%
O=C(O)CC(=O)N1N=C(c2ccc(Cl)cc2)CC1c1ccc2nccnc2c1 (stereo not drawn) [Compound 49, 3-(3-(4-Chlorophenyl)-5-(quinoxalin-6-yl)-4,5-dihydro-1H-pyrazol-1-yl)-3-oxopropanoic acid] |  |  | 8.1 ± 7.7%
CC(C)S(=O)(=O)NC(=O)CCC(=O)N1N=C(c2cccc(-c3ccccc3)c2)CC1c1ccc2nccnc2c1 (stereo not drawn) [Compound 119, 4-(3-([1,1′-Biphenyl]-3-yl)-5-(quinoxalin-6-yl)-4,5-dihydro-1H-pyrazol-1-yl)-N-(isopropylsulfonyl)-4-oxobutanamide] | 81.8 ± 2.7% | 11.9 ± 2.7% | 
O=C(O)CCC(=O)N1N=C(c2ccc(Cl)cc2)CC1c1ccc2c(c1)OCO2 (stereo not drawn) [Compound 37, 4-(5-(benzo[d][1,3]dioxol-5-yl)-3-(4-chlorophenyl)-4,5-dihydro-1H-pyrazol-1-yl)-4-oxobutanoic acid] |  |  | 15.6 ± 2%
CS(=O)(=O)NC(=O)CCC(=O)N1N=C(c2cccc(-c3ccccc3)c2)CC1c1ccc2nccnc2c1 (stereo not drawn) [Compound 68, 4-(3-([1,1′-Biphenyl]-3-yl)-5-(quinoxalin-6-yl)-4,5-dihydro-1H-pyrazol-1-yl)-N-(methylsulfonyl)-4-oxobutanamide] | 85.4 ± 0.5% | 20.5 ± 1.4% | 
